Our source for the Suppression, MST and No. of survivals values is ChEMBL document CHEMBL1146839, “Orally active amino functionalized antimalarial 1,2,4-trioxanes” (Bioorg Med Chem Lett, 2004).

The subject of series [1] is Mus musculus. As to the kind of experiment: In vivo antimalarial activity against Plasmodium yoelii in mice (Mus musculus) at 96 mg/kg/day orally on day 4 expressed as percent suppression. The series is classed as functional. Conditions: route oral.
Series [2] has as its system Mus musculus. Kind of series: Mean survival time against Plasmodium yoelii in mice (Mus musculus) which died during 28-day observation period at 96 mg/kg/day intramuscularly. The series is classed as functional. The conditions noted are these: route intramuscular.
The nature of series [3]: Number of survivals against Plasmodium yoelii in mice (Mus musculus) (out of 5) at 96 mg/kg/day intramuscularly on day 28. The series is classed as organism-based. Also noted: route intramuscular. Conditions: in vivo, im.
The nature of series [4]: Number of survivals against Plasmodium yoelii in mice (Mus musculus) (out of 5) at 96 mg/kg/day orally on day 28. The series is classed as organism-based. On the set-up: route oral. The conditions noted are these: in vivo, po.
For series [5], the system named is Mus musculus. Kind of series: Mean survival time against Plasmodium yoelii in mice (Mus musculus) which died during 28-day observation period at 96 mg/kg/day orally. The series is classed as functional. The conditions noted are these: route oral.
Series [6] concerns Mus musculus. As to the kind of experiment: In vivo antimalarial activity against Plasmodium yoelii in mice (Mus musculus) at 96 mg/kg/day intramuscularly on day 4 expressed as percent suppression. The series is classed as functional. Conditions: route intramuscular.
In series [7] the test system is Mus musculus. Kind of series: In vivo antimalarial activity against Plasmodium yoelii in mice (Mus musculus) at 96 mg/kg/day intramuscularly on day 4 expressed as percent suppression; No suppression. The series is classed as functional, organism-based.
Series [8] can be described thus: Number of survivals against Plasmodium yoelii in mice (Mus musculus) (out of 5) at 48 mg/kg/day orally on day 28. The series is classed as organism-based. On the set-up: route oral. The conditions noted are these: in vivo, po.
In series [9] the test system is Mus musculus. Kind of series: Mean survival time against Plasmodium yoelii in mice (Mus musculus) which died during 28-day observation period at 48 mg/kg/day orally. The series is classed as functional. Conditions: route oral.
For series [10], the system named is Mus musculus. Kind of series: In vivo antimalarial activity against Plasmodium yoelii in mice (Mus musculus) at 48 mg/kg/day orally on day 4 expressed as percent suppression. The series is classed as functional. Conditions: route oral.
Series [11] deals with Mus musculus. As to the kind of experiment: Mean survival time against Plasmodium yoelii in mice (Mus musculus) which died during 28-day observation period at 24 mg/kg/day orally. The series is classed as functional. Conditions: route oral.
Series [12] deals with Mus musculus. Kind of series: Percent suppression against Plasmodium yoelii in mice (Mus musculus) at 96 mg/kg/day intramuscularly on day 4. The class given is functional. Conditions: route intramuscular.
The nature of series [13]: Number of survivals against Plasmodium yoelii in mice (Mus musculus) (out of 5) at 24 mg/kg/day orally on day 28. The series is classed as organism-based. On the set-up: route oral. The conditions noted are these: in vivo, po.
For series [14], the system named is Mus musculus. Kind of series: Percent suppression against Plasmodium yoelii in mice (Mus musculus) at 24 mg/kg/day orally on day 4. The series is classed as functional. Conditions: route oral.
The test system of series [15] is Mus musculus. Kind of series: In vivo antimalarial activity against Plasmodium yoelii in mice (Mus musculus) at 24 mg/kg/day orally on day 4 expressed as percent suppression. The class given is functional. Conditions: route oral.

The source made the active and inactive calls. The calls are words filed in the database; no cut-off is given here.

For `C=C(c1ccc(-c2ccccc2)cc1)C1COC2(CCC(Nc3ccc(NC(C)=O)cc3)CC2)OO1` (stereo not given), the Suppression in the series with Mus musculus [1] was 49%; in the series with Mus musculus [6], 90%. In addition, the MST with Mus musculus [2] is 11.6 days; with Mus musculus [5], 8.4 days. In addition, the No. of survivals in [3] and in series [4] was 0 each time.
The compound `C=C(c1ccc(-c2ccccc2)cc1)C1COC2(CCC(Nc3cccc4ccccc34)CC2)OO1` (stereo not given) had a Suppression in the series on Mus musculus [1] of 100%. For the same compound, the MST in the series on Mus musculus [2] was found to be 6.6 days; in the series with Mus musculus [5] it was 14.8 days. Besides, in the series on Mus musculus [7], the Suppression entry is “inactive”. Moreover, the No. of survivals in series [3] and in [4] was 0 in each case.
Turning to `C=C(c1ccc(-c2ccccc2)cc1)C1COC2(CCC(Nc3ccccc3)CC2)OO1` (stereo not given), the Suppression in the series with Mus musculus [1] worked out at 100%; in the series on Mus musculus [10] it was 100%; with Mus musculus [12] it was 72%; in the series on Mus musculus [14] it was 98%. The No. of survivals in series [8] came out at 3; in series [3], 0; in [4] it was 5; in [13], 0. Moreover, the MST with Mus musculus [9] is 14.5 days; in the series with Mus musculus [2], 10.7 days; with Mus musculus [11] it was 13.4 days; with Mus musculus [5], >28 days.
On to `C=C(c1ccc(-c2ccccc2)cc1)C1COC2(CCC(Nc3ccc(OC)cc3)CC2)OO1` (stereo not given), for which the Suppression was determined as 94% in the series on Mus musculus [1] and 57% in the series on Mus musculus [6]. Besides, the MST with Mus musculus [2] came out at 8.4 days; in the series on Mus musculus [5], 11.1 days. The No. of survivals in [3] and in series [4] was 0 throughout.
For `CCO[C@H]1O[C@@H]2O[C@@]3(C)CC[C@H]4[C@H](C)CC[C@@H]([C@H]1C)[C@@]24OO3` [ARTEMOTIL], the No. of survivals in series [8] is reported as 5; in series [13] it was 1. Further, the MST was >28 days in the series with Mus musculus [9] and 17.75 days in the series on Mus musculus [11]. Moreover, the Suppression in the series with Mus musculus [10] and with Mus musculus [15] was 100% throughout.
Consider `C=C(c1ccc(-c2ccccc2)cc1)C1COC2(CCC(=O)CC2)OO1` (stereo not given), for which the Suppression in the series on Mus musculus [1] is recorded as 92%; in the series on Mus musculus [6], 100%. Besides, the MST with Mus musculus [2] was determined as 17.7 days; in the series with Mus musculus [5] it was 10.2 days. For the same compound, the No. of survivals was determined as 1 in series [3] and 0 in [4].
Take `C=C(c1ccc(-c2ccccc2)cc1)C1COC2(CCC(Nc3cc(Cl)cc(Cl)c3)CC2)OO1` (stereo not given): the Suppression in the series with Mus musculus [1] was determined as 65%; in the series on Mus musculus [6], 46%. In addition, the values for the MST in the series on Mus musculus [2] and in the series with Mus musculus [5] were 7 days and 10.2 days, respectively. Also, the No. of survivals in series [3] and in series [4] was 0 each time.
On to `C=C(c1ccccc1)C1COC2(CCC(Nc3cc(Cl)cc(Cl)c3)CC2)OO1` (stereo not given), for which the Suppression came to 100% with Mus musculus [1] and 62% in the series with Mus musculus [6]. Also, the MST amounted to 12.4 days with Mus musculus [2] and 16.5 days with Mus musculus [5]. The No. of survivals in [3] was 0; in [4], 2.
Turning to `CCN(CC)CCCC(C)Nc1ccnc2cc(Cl)ccc12` (stereo not given) [CHLOROQUINE], the No. of survivals is listed as 2 in [8] and 0 in series [13]. Also, the MST with Mus musculus [9] came to 17.6 days; with Mus musculus [11] it was 14.8 days. The Suppression with Mus musculus [10] and in the series on Mus musculus [15] was 100% throughout.
In the case of `C=C(c1ccccc1)C1COC2(CCC(Nc3cccc4ccccc34)CC2)OO1` (stereo not given), the values for the Suppression in the series with Mus musculus [1] and in the series on Mus musculus [6] were 100% and 44%, respectively. In addition, the MST in the series on Mus musculus [2] amounted to 9.2 days; in the series with Mus musculus [5], 19.5 days. The No. of survivals in series [3] and in series [4] was 0 throughout.
Take `C=C(c1ccccc1)C1COC2(CCC(Nc3ccc(NC(C)=O)cc3)CC2)OO1` (stereo not given): the Suppression in the series with Mus musculus [1] turned out to be 77%; in the series on Mus musculus [6] it was 98%. Besides, the MST was determined as 9 days in the series with Mus musculus [2] and 9.8 days in the series with Mus musculus [5]. In addition, the No. of survivals in series [3] and in [4] was 0 in each case.
`C=C(c1ccccc1)C1COC2(CCC(Nc3ccccc3)CC2)OO1` (stereo not given): the results for the Suppression in the series with Mus musculus [1] and with Mus musculus [6] were 95% and 60%, respectively. Moreover, the results for the MST with Mus musculus [2] and in the series with Mus musculus [5] were 13.4 days and 12.2 days, respectively. Also, the No. of survivals in series [3] and in series [4] was 0 each time.
Consider `C=C(c1ccccc1)C1COC2(CCC(Nc3ccc(OC)cc3)CC2)OO1` (stereo not given), for which the Suppression is recorded as 93% with Mus musculus [1] and 63% with Mus musculus [6]. Besides, the results for the MST with Mus musculus [2] and in the series with Mus musculus [5] were 10.8 days and 12.4 days, respectively. Moreover, the No. of survivals in series [3] and in series [4] was 0 each time.
Turning to `C=C(c1ccccc1)C1COC2(CCC(=O)CC2)OO1` (stereo not given), the Suppression in the series on Mus musculus [1] is 7%; in the series on Mus musculus [6] it was 99%. Also, the figures for the MST in the series on Mus musculus [2] and in the series on Mus musculus [5] were 11.6 days and 7.2 days, respectively. Further, the No. of survivals in [3] and in series [4] was 0 throughout.
